{
  "source": "paper PMC9841532",
  "about": "“Exploring the Effect of Halogenation in a Series of Potent and Selective A2B Adenosine Receptor Antagonists” (Journal of Medicinal Chemistry, 2022)",
  "tested_on": "human peripheral blood mononuclear cells (PBMCs)",
  "test": "Proliferation of CFSE-labeled activated PBMCs in the presence of adenosine",
  "type": "cell-based",
  "conditions": "PBMCs + anti-CD3/CD28 + IL-2 + Ado 0.1 mM + compound 15 μM, 3 days",
  "from_the_text": "To gain evidence supporting the role of the here optimized A2BAR antagonists in the context of cancer immunotherapy, it was decided to evaluate the effect of two representative compounds (16b and 16j) in the proliferative activity of a prototypical immune cell. The human peripheral blood mononuclear cells (PBMCs) were selected for the study; they are critical components of the immune system and are involved in both humoral and cell-mediated immunity. Ado-mediated blockade of PBMC proliferation is well documented and characterized;[51],[52] we therefore investigated whether our A2BAR antagonists (16b and 16j) can reverse the blockade of ADO-mediated proliferation in human PBMCs. PBMCs, isolated from a healthy donor, were labeled with carboxyfluorescein succinimidyl ester (CFSE) and then activated by adding anti-CD3/CD28 antibodies and interleukin 2 (IL-2). CFSE is a cell dye that allows for the determination of cell proliferation, as dividing cells progressively lose fluorescence.\nFigure 10 Effect of compounds 16b and 16j on the proliferation of PBMCs stimulated with antiCD3/CD28 + IL-2 in the presence of adenosine (ADO). […] The frequency of proliferating cells (CFSE^dim) as well as their median fluorescence intensities were quantified and ratios calculated against the values of stimulated PBMCs with no further treatment. […]",
  "data": [
    {"smiles": "CC1=C(C(=O)OC(C)C)C(c2ccco2)n2c(nc3cc(Cl)ccc32)N1", "note": "(centres unmarked) [16j]", "values": [
      {"measurement": "frequency of proliferating cells (CFSEdim)", "value": 6.54, "unit": "%"}
    ]},
    {"smiles": "CC1=C(C(=O)OC(C)C)C(c2ccco2)n2c(nc3cc(F)ccc32)N1", "note": "(centres unmarked) [16b]", "values": [
      {"measurement": "frequency of proliferating cells (CFSEdim)", "value": 9.14, "unit": "%"}
    ]}
  ]
}
